US20260108572A1, “ALZHEIMER-TYPE DEMENTIA SUPPRESSANT, AND METHOD FOR PRODUCING SAME” (Sakamoto Yakusouen, LLC, priority 2022, published 2026)

How the values were obtained:
[1] = tested on: senescence-accelerated model mouse SAM-P8; assay: Genome expression (RNA sequencing, PCA) in the whole brain of senescence-accelerated model mice after oral administration; assay type: in vivo; conditions: oral 7 days: donepezil 5 mg/kg, acteoside 100 mg/kg, SSa extract powder 500 mg/kg, brain after 30 days
Protocol: Seven-week-old male normal aged mouse SAM-R and male senescence-accelerated model mouse SAM-P8 that were respectively obtained from Japan SLC were arbitrarily divided into two groups of 10 mice each and acclimatized for 1 week. Then, 500 mg/kg of SSa extract powder was orally administered to SAM-R SSa extract powder-administered group and SAM-P8 SSa extract powder-administered group for 7 days. Each group of mice other than the above groups was given normal feed and water freely. Next, after the mice were reared for 30 days, the mice were humanely killed by anesthesia. The whole brain was taken out and preserved at −80° C. by the genome analysis.
Next, chloroform (0.2 mL) was added thereto, and the mixture was stirred well for 15 seconds and then stood still for 2 to 3 minutes. […]
The specific mRNA was concentrated from the obtained total RNA using an RNA sample preparation kit (“TruSeq Standard mRNA Library Prep kit” manufactured by Illumina). […] Then, the sequences of the cDNA library were determined using a next-generation DNA sequencer (“NoVaSeq6000” manufactured by Illumina) in the conditions of 100 bp, Paired-end and 40,000,000 read per 1 sample.
STAR>cufflinks>cuffdif analysis was carried out to compare the analysis results. GRCm38.92 was used as a mouse genome database, and the gene expression amount in gene level and in exon level as the component element of the gene was analyzed. […]

[2] = molecular target: T1, Aβ derived from human (Human, 1-42) (Homo sapiens, UniProt P05067); assay: Aβ accumulation inhibitory activity using Thioflavin-T; assay type: biochemical; conditions: pure compounds, similarly to Example 5(1); Aβ 25 μM, 24 hours
T1 construct: Aβ derived from human (“Human, 1-42” manufactured by Peptide Institute); purchased Peptide Institute
Protocol: The Aβ accumulation inhibitory activities of each fraction were determined using Thioflavin-T in the following condition. Aβ derived from human (“Human, 1-42” manufactured by Peptide Institute) was dissolved in 0.1% ammonia water in a concentration of 250 μM. Each of the fraction samples was added to a phosphate buffer (0.05 M sodium phosphate+0.1 M sodium chloride, pH7.4) (hereinafter abbreviated as “PBS”) in the final concentrations of 0.01 g/L, 0.05 g/L and 0.1 g/L. The Aβ solution was added thereto in the final concentration of 25 μM for the reaction at 37° C. A part of the reaction mixture was collected 0, 4, 8 and 24 hours after the start of the reaction, and 2.5 μL of the collected reaction mixture was added to each well of a 96 well plate for fluorescence measurement (“Nunc FluoroNunc plate” manufactured by Thermo Fisher Science). Then, Thioflavin-T solution was dissolved in 50 mM glycine-sodium hydroxide buffer (pH 8.5), and the solution (250 μL) was added to each well. The fluorescence intensity emitted when the B sheet of the Aβ fiber was labeled with Thioflavin-T was measured. The fluorescence intensity was measured using a microplate reader (“Wallac 1420 ARVO MX” manufactured by Perkin Elmer) in the condition of a wavelength of Excitation: 420 nm and Emission: 485 nm.

[3] = molecular target: T2, human islet amyloid polypeptide (hIAPP) (Homo sapiens, UniProt P10997); assay: hIAPP accumulation inhibitory activity using Thioflavin-T; assay type: biochemical; conditions: compounds at 1, 10, 100 μM in PBS pH7.4
T2 construct: hIAPP manufactured by Karebay Biochem was used in place of Aβ; purchased Karebay Biochem
T2 sequence (P10997 34-70 limits assumed): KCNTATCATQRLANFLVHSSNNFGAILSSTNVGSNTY

T1 sequence (P05067 672-713 limits assumed): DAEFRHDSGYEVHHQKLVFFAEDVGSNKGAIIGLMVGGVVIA

Structure (SMILES)	Difference of expression pattern from the control group on PC1 axis (PCA, gene and exon level) [1]	IC50 [2]	IC50 [3]
C[C@@H]1O[C@@H](O[C@@H]2[C@@H](O)[C@H](OCCc3ccc(O)c(O)c3)O[C@H](CO)[C@H]2OC(=O)/C=C/c2ccc(O)c(O)c2)[C@H](O)[C@H](O)[C@H]1O [Acteoside, acteoside]	not a large difference	13 µM	21 µM
COc1cc2oc(-c3ccc(O)c(O)c3)cc(=O)c2c(O)c1O[C@@H]1O[C@H](CO)[C@@H](O)[C@H](O)[C@H]1O [Pedaliin, pedaliin]	–	2.8 µM	4.2 µM
